“And” between values parts separate entries of the source, which are not always exact repeats. Identical values can stand only once. Like-named read-outs stand apart in the source and are kept apart here.
Tests used:
[1] = tested on: KB (human nasopharyngeal carcinoma) cell line; experiment: Cytotoxicity against KB cell line; assay type: cell-based
[2] = tested on: LoVo (human colon-carcinoma) cell line; experiment: Cytotoxicity against LoVo cell line; assay type: cell-based
[3] = tested on: SKOV3 (human ovarian carcinoma) cell line; experiment: Cytotoxicity against SKOV3 cell line; conditions: Table 2
[4] = tested on: Panc 03 (pancreatic ductal adenocarcinoma #03, P03); conditions: SC P03
Experimental: Gross log kill is defined as T-C/3.2 Td where T is the median time in days for the tumors of the treated group to reach 750 mg, C is the median time in days for the tumors of the control group to reach 750 mg, and Td is the tumor volume doubling time.

[5] = tested on: murine leukemia (L1210 or P388), murine solid tumor, human solid tumor and low malignancy fibroblast (LML) cells; conditions: for Differential in Zone Units, Corbett Assay: μg/disk as for E3; for Type of Cytotoxicity, Corbett Assay: μg/disk: 1 12.5, 2 25, 3 25, 4 20, 5 2.9, 6 250, 8 30, 5-FU 2.5, VP-16 5, taxol 0.2, ^c selective against drug-sensitive and drug-resistant cell lines, ^d drug-sensitive cell lines only
[6] = Exp # 1878, 9 inj. IV, 82 mg/kg TD
[7] = Exp # 1843, 4 inj. IV, 28/5 mg/kg TD
[8] = Exp # 1813, 9 inj. IV, 27 mg/kg TD

Compound	KB IC50 ([1]; Table 2) [ng/mL]	LoVo IC50 ([2]; Table 2) [ng/mL]	SKOV3 IC50 [3] [ng/mL]	further results
COc1c(Cl)cc(CC2NC(=O)C=CCC(C(C)C3OC3c3ccccc3)OC(=O)C(CC(C)C)OC(=O)C(C)CNC2=O)cc1Cl (stereo not shown) [Cryptophycin 31]	0.53	0.062	1.9	
CC(C)C[C@@H]1OC(=O)[C@H](C)CNC(=O)[C@@H](Cc2ccc(O)c(Cl)c2)NC(=O)/C=C/C[C@@H]([C@H](C)[C@H]2O[C@@H]2c2ccccc2)OC1=O [Cryptophycin 16]	0.08		0.64	% Body Wt. Loss at Nadir [4, 6]: -1%; Cures [4, 6]: 0/5; Log Kill [4, 6]: None; T/C [4, 6]: 89%
COc1ccc(C[C@H]2NC(=O)/C=C/C[C@@H](C/C=C/c3ccccc3)OC(=O)[C@H](CC(C)C)OC(=O)[C@H](C)CNC2=O)cc1Cl [Cryptophycin 28]	1.5	0.75	6.1	
COc1ccc(C[C@@H](NC(=O)/C=C/C[C@H](O)[C@H](C)[C@@H](O)[C@@H](OC)c2ccccc2)C(=O)NC[C@@H](C)C(=O)O)cc1Cl [Cryptophycin 10]				KB IC50 ([1]; Table 1): ≥ 100 ng/mL; LoVo IC50 ([2]; Table 1): ≥ 100 ng/mL
COc1ccc(C[C@H]2NC(=O)/C=C/C[C@@H]([C@H](C)/C=C/c3ccccc3)OC(=O)[C@H](CC(C)C)OC(=O)CCNC2=O)cc1Cl [Cryptophycin 29]		0.49	3.4	
COc1ccc(CC2NC(=O)C=CCC(C(C)C=Cc3ccccc3)OC(=O)C(C(C)C)OC(=O)C(C)CNC2=O)cc1Cl (stereo not shown) [Cryptophycin 19]	9.8		41	
COc1ccc(C[C@@H](NC(=O)/C=C/C[C@@H]2O[C@@H](c3ccccc3)[C@H](O)[C@H]2C)C(=O)NC[C@@H](C)C(=O)O)cc1Cl [Cryptophycin 12]	18			KB IC50 ([1]; Table 1): ≥ 100 ng/mL
COc1ccc(C[C@H]2NC(=O)/C=C/C[C@@H]([C@H](C)[C@H]3O[C@@H]3c3ccccc3)OC(=O)[C@H](CC(C)C)OC(=O)[C@H](C)CNC2=O)cc1 [Cryptophycin 2]		0.021	0.18	LoVo IC50 ([2]; Table 1): 0.0002 ng/mL; Differential in Zone Units, Corbett Assay [5]: > 400 Zone Units; Type of Cytotoxicity, Corbett Assay [5]: E/T
CCC[C@@H]1OC(=O)[C@H](C)CNC(=O)[C@@H](Cc2ccc(OC)c(Cl)c2)NC(=O)/C=C/C[C@@H]([C@H](C)[C@H]2O[C@@H]2c2ccccc2)OC1=O [Cryptophycin 50]			0.2	
COc1ccc(C[C@H]2NC(=O)C[C@H](O)C[C@@H]([C@H](C)/C=C/c3ccccc3)OC(=O)[C@H](CC(C)C)OC(=O)[C@H](C)CNC2=O)cc1Cl [Cryptophycin 30]	11			
COc1ccc(C[C@H]2NC(=O)/C=C/C[C@@H]([C@H](C)/C=C/c3ccccc3)OC(=O)[C@H](CC(C)C)OC(=O)[C@H](C)CNC2=O)cc1 [Cryptophycin 4]		2.5	21	Differential in Zone Units, Corbett Assay [5]: > 400 Zone Units; Type of Cytotoxicity, Corbett Assay [5]: E/T
COC(=O)[C@H](C)CNC(=O)[C@@H](Cc1ccc(OC)c(Cl)c1)NC(=O)/C=C/C[C@@H]1O[C@@H](c2ccccc2)[C@H](O)[C@H]1C [Cryptophycin 6]				KB IC50 ([1]; Table 1): ≥ 100 ng/mL; LoVo IC50 ([2]; Table 1): ≥ 100 ng/mL
COc1cc([C@@H]2c3cc4c(cc3[C@@H](O[C@@H]3O[C@@H]5CO[C@@H](C)O[C@H]5[C@H](O)[C@H]3O)[C@H]3COC(=O)[C@H]23)OCO4)cc(OC)c1O [VP-16, etoposide, reference compound]				Differential in Zone Units, Corbett Assay [5]: 350 Zone Units and 530 Zone Units
CCCC1OC(=O)C(C)CNC(=O)C(Cc2ccc(OC)c(Cl)c2)NC(=O)C=CCC(C(C)C=Cc2ccccc2)OC1=O (stereo not shown) [Cryptophycin 49]			1.1	
COc1ccc(C[C@H]2NC(=O)/C=C/C[C@@H]([C@H](C)[C@@H](O)[C@@H](O)c3ccccc3)OC(=O)[C@H](CC(C)C)OC(=O)[C@H](C)CNC2=O)cc1Cl [Cryptophycin 15]			12	
COc1ccc(CC(NC(=O)C=CCC(O)C(C)C=Cc2ccccc2)C(=O)NCC(C)C(=O)O)cc1Cl (stereo not shown) [Cryptophycin 14]				KB IC50 ([1]; Table 1): 1.8 ng/mL
COc1ccc(C[C@H]2NC(=O)/C=C/C[C@@H]([C@H](C)[C@H]3O[C@@H]3c3ccccc3)OC(=O)[C@H](CC(C)C)OC(=O)CCNC2=O)cc1 [Cryptophycin 24]	0.12	0.095	0.3	
COc1ccc(CC(NC(=O)C=CCC2OC(c3ccccc3)C(O)C2C)C(=O)O)cc1Cl (stereo not shown) [Cryptophycin 7]				KB IC50 ([1]; Table 1): ≥ 750 ng/mL; LoVo IC50 ([2]; Table 1): ≥ 480 ng/mL
COc1ccc(CC2NC(=O)C=CCC(C(C)C(O)C(OC)c3ccccc3)OC(=O)C(CC(C)C)OC(=O)C(C)CNC2=O)cc1Cl (stereo not shown) [Cryptophycin 9]				KB IC50 ([1]; Table 1): 15 ng/mL
COc1ccc(C[C@H]2NC(=O)/C=C/C[C@@H]([C@H](C)/C=C/c3ccccc3)OC(=O)[C@H](CC(C)C)OC(=O)[C@H](C)CNC2=O)cc1Cl [Cryptophycin 3]		0.6	2.8	KB IC50 ([1]; Table 1): 0.3 ng/mL; LoVo IC50 ([2]; Table 1): 0.5 ng/mL; Differential in Zone Units, Corbett Assay [5]: > 400 Zone Units; Type of Cytotoxicity, Corbett Assay [5]: E/T; % Body Wt. Loss at Nadir [4, 7]: -9%; Cures [4, 7]: 0/5; Log Kill [4, 7]: < 1; T/C [4, 7]: 54%
CCC(C)C1OC(=O)C(C)CNC(=O)C(Cc2ccc(OC)c(Cl)c2)NC(=O)C=CCC(C(C)C=Cc2ccccc2)OC1=O (stereo not shown) [Cryptophycin 18]		4.5	23	
COc1ccc(CC2NC(=O)C=CCC(CC3OC3c3ccccc3)OC(=O)C(CC(C)C)OC(=O)C(C)CNC2=O)cc1Cl (stereo not shown) [Cryptophycin 40]	9.0	1.0		
CC[C@H](C)[C@@H]1OC(=O)[C@H](C)CNC(=O)[C@@H](Cc2ccc(OC)c(Cl)c2)NC(=O)/C=C/C[C@@H]([C@H](C)[C@H]2O[C@@H]2c2ccccc2)OC1=O [Cryptophycin 54]	0.80	2.2	2.2	
COc1ccc(C[C@H]2NC(=O)CC(C[C@H](O)[C@H](C)/C=C/c3ccccc3)OC(=O)[C@H](CC(C)C)OC(=O)[C@H](C)CNC2=O)cc1Cl (stereo partly shown) [Cryptophycin 26]	19	9.8	95	
CC(C)CC1OC(=O)C(C)CNC(=O)C(Cc2ccc(O)c(Cl)c2)NC(=O)C=CCC(C(C)C=Cc2ccccc2)OC1=O (stereo not shown) [Cryptophycin 17]	4.7	5.9	11	
COc1ccc(C[C@H]2NC(=O)/C=C/C[C@@H]([C@H](C)[C@H]3O[C@@H]3c3ccccc3)OC(=O)[C@H](CC(C)C)OC(=O)CCNC2=O)cc1Cl [Cryptophycin 21]		0.0003	0.029	% Body Wt. Loss at Nadir [4, 8]: -11%; Cures [4, 8]: 0/5; Log Kill [4, 8]: None; T/C [4, 8]: 61%; dead [4, 8]: 1/5
